# Measurements as given in article PMC7118351 (BMB Reports, 2020).
# Structures can show the parent of a compound that is named as a salt. Where two headings read alike, the source gives them in different places.
# Tests used:
# Ebola trVLP replication = experiment: microbe, parasite or virus in culture; assay type: cell-based, Ebola virus (EBOV)
# EBOV GP = assay type: cell-based, Ebola virus (EBOV)
# VP40 = assay type: cell-based, Ebola virus (EBOV)
# HEK293T cells = details: human
# in vitro [1] = details: human
# [2] = tested on: tetracistronic minigenome RNA incorporated into trVLPs; assay type: cell-based, Ebola virus (EBOV)
# in vitro [3] = details: human; remark: listed apart in the source
# dengue virus = assay type: cell-based
# rhinovirus = assay type: cell-based
Compound,"SI (selectivity index, ratio of CC50 to EC50) (Ebola trVLP replication)","EC50 (Ebola trVLP replication; Zaire ebolavirus, HEK-293T)",CC50 (in vitro [1]),other results
"NC(=O)c1ncn([C@@H]2O[C@H](CO)[C@@H](O)[C@H]2O)n1 [RBV, ribavirin]",> 16.3,–,–,EC50 (Ebola trVLP replication): 4.1 ± 2.1 µM; reduction of the number of GP-positive spots (EBOV GP): 62.5%; VP40 protein level (Western blot) (VP40): downregulated in a dose-dependent manner; CC50 (HEK293T cells): > 90 µM
CN(C)CCCN1c2ccccc2Sc2ccc(C(F)(F)F)cc21 [Triflupromazine],> 23.8,1.4 ± 0.5 µM,> 30 µM,–
CN1CCCN(C(c2ccccc2)c2ccc(Cl)cc2)CC1 (centres unmarked) [Homochlorcyclizine],> 37.1,0.8 µM,> 30 µM,–
CN1[C@@H]2CC[C@H]1C[C@@H](OC(c1ccccc1)c1ccccc1)C2 [Benztropine mesylate],–,–,> 30 µM,–
"CC(C)(N)C(=O)N[C@H](COCc1ccccc1)C(=O)N1CCC2(CC1)CN(S(C)(=O)=O)c1ccccc12 [Ibutamoren mesylate, ibutamoren mesylate]",> 81.1,0.2 µM,–,EC50 (Ebola trVLP replication): < 0.4 µM; S.I. (selectivity index) (Ebola trVLP replication): 222.8; reduction of the number of GP-positive spots (EBOV GP): 74.2%; VP40 protein level (Western blot) (VP40): downregulated in a dose-dependent manner; amount of negative-sense minigenome RNA incorporated into trVLPs [2]: suppression of the amount of negative-sense minigenome RNA incorporated into trVLPs in a dose-dependent manner; CC50 (HEK293T cells): > 30 µM; CC50 (in vitro [3]): 76.7 µM
O=C1NCCN1CCN1CCC(c2cn(-c3ccc(F)cc3)c3ccc(Cl)cc23)CC1 [Sertindole],> 45.8,–,23.1 µM,reduction of the number of GP-positive spots (EBOV GP): 84.7%; VP40 protein level (Western blot) (VP40): downregulated in a dose-dependent manner; amount of negative-sense minigenome RNA incorporated into trVLPs [2]: suppression of the amount of negative-sense minigenome RNA incorporated into trVLPs in a dose-dependent manner; viral inhibition in cells (dengue virus): no viral inhibition; viral inhibition in cells (rhinovirus): no viral inhibition; CC50 (HEK293T cells): > 30 µM; CC50 (in vitro [3]): 13.7 µM
CN(C)C(=O)C(CCN1CCC(O)(c2ccc(Cl)cc2)CC1)(c1ccccc1)c1ccccc1 [Loperamide],–,–,> 30 µM,–
Cc1[nH]c(/C=C2\C(=O)Nc3ccc(S(=O)(=O)N(C)c4cccc(Cl)c4)cc32)c(C)c1C(=O)N1CCN(C)CC1 [SU11274],> 13.6,2.6 ± 1.4 µM,> 30 µM,–
CC(=O)c1ccc2c(c1)N(CCCN1CCC(CCO)CC1)c1ccccc1S2 [Piperacetazine],15.7 ± 4.6,2 ± 0.6 µM,26.1 ± 5.5 µM,–
"O=C(c1ccc(OCCN2CCCCC2)cc1)c1c(-c2ccc(O)cc2)sc2cc(O)ccc12 [Raloxifene, raloxifene hydrochloride]",47.1 ± 2.2,–,13.9 µM,reduction of the number of GP-positive spots (EBOV GP): 69.1%; VP40 protein level (Western blot) (VP40): downregulated in a dose-dependent manner; amount of negative-sense minigenome RNA incorporated into trVLPs [2]: suppression of the amount of negative-sense minigenome RNA incorporated into trVLPs in a dose-dependent manner; viral inhibition in cells (dengue virus): no viral inhibition; viral inhibition in cells (rhinovirus): no viral inhibition; CC50 (HEK293T cells): 25.6 ± 0.2 µM; CC50 (in vitro [3]): 23.4 µM
"CN1[C@@H]2CC[C@H]1C[C@@H](OC(c1ccccc1)c1ccc(Cl)cc1)C2 (some centres unmarked) [Hit 3-CPMT, 3a-[(4-chlorophenyl)phenylmethoxy]tropane]",> 26.3,1.3 ± 0.5 µM,> 30 µM,–
CCCC(C(=O)OCCN(CC)CC)(c1ccccc1)c1ccccc1 [Proadifen],> 11.6,2.7 ± 0.7 µM,> 30 µM,–
CN1CCN(C(c2ccccc2)c2ccc(Cl)cc2)CC1 (centres unmarked) [Chlorcyclizine],> 17.0,2.7 ± 2.2 µM,> 30 µM,–
"NC(=O)c1nc(F)c[nH]c1=O [Hit T-705, 6-flouro-3-hydroxy-2-pyrazinecarboxamide]",> 13.0,4.7 ± 3.1 µM,> 90 µM,–
OCCN1CCN(CCCN2c3ccccc3Sc3ccc(Cl)cc32)CC1 [Perphenazine],27.7 ± 9.2,0.7 ± 0.2 µM,17.4 ± 0.6 µM,–
CNCCCC12CCC(c3ccccc31)c1ccccc12 [Maprotiline],–,–,25.1 ± 2.1 µM,–
